Results published in patent US4599424A, “5-substituted thiadiazole ureas and their use as herbicides” (priority 1979, dated 1986).

Legend:
Cotton (CT) = assay: Post-emergence herbicide test, cotton; format: in vivo, Gossypium hirsutum var. DPL smooth leaf; conditions: two weeks
Procedure: Cotton (CT)--Gossypium hirsutum var. DPL smooth leaf
(§1) All crop and weed species were planted individually in 3" plastic pots containing potting soil. Four seeds each of corn, cotton, and snapbeans were seeded to a depth equal to the diameter of the seed. All other species were surface seeded and sprinkled with screened soil in an amount sufficient to cover the seed. Immediately after planting, all pots were watered by sub-irrigation in greenhouse trays. Pots for the pre-emergence phase were seeded one day before treatment.
(§2) Planting dates for the post-emergence phase were varied so that all seedlings would reach the desired stage of development simultaneously. The proper stage of seedling development for treatment in the post-emergence phase is as follows:
cotton: first true leaf 1" in length; expanded cotyledons.
(§3) Spray hood constants required to deliver the above volume are as follows:
(§4) Formulations for spray applications were prepared in 50 ml volumes with the following three components:
(§5) Formulations for the 4 lbs/acre rate were prepared by adjusting the amount of active ingredient accordingly.
(§6) Spray applications were made in a hood containing a removable belt and fixed spray nozzle. For passage through the spray hood, one pot of each specie (pre-emergence phase) was placed on the rear half of the flat. Treatments were removed to the greenhouse after spraying. Watering during the observation period was done only by sub-irrigation.
(§7) Two weeks after treatment, pre- and post-emergence injury or control was visually rated, and the results were as shown in the following tables. Pre-emergence data are provided in TABLE III and post-emergence data are provided in TABLE IV, for compounds having the formula illustrated in TABLE I. Correspondingly, pre-emergence and post-emergence data, respectively, are set forth in TABLES V AND VI, for compounds having the formula illustrated in TABLE II.

Crabgrass (CG) [1] = assay: Post-emergence herbicide test, crabgrass; format: in vivo, Digitaria sanguinalis; conditions: two weeks
Procedure: (§8) Crabgrass (CG)--Digitaria sanguinalis
as §1, §2, §3
(§9) Formulations for spray applications were prepared in 50 ml volumes with the following three components: […]
as §6, §7

Turnip (TP) [2] = assay: Pre-emergence herbicide test, turnip; format: in vivo, Brassica sp.; conditions: two weeks
Procedure: (§10) Turnip (TP)--Brassica sp.
as §1, §3, §9, §6, §7

Bean (BN) = assay: Post-emergence herbicide test, bean; format: in vivo, Phaseolus vulgaris var. Black Valentine; conditions: two weeks
Procedure: Bean (BN)--Phaseolus vulgaris var. Black Valentine
as §1, §2
Beans: primary leaves expanded, growing point at primary leaf nodes.
as §3, §4, §5, §6, §7

Turnip (TP) [3] = assay: Post-emergence herbicide test, turnip; format: in vivo, Brassica sp.; conditions: two weeks
Procedure: as §10, §1, §2
Pigweed and turnips: 1 or 2 true leaves above visible cotyledons.
as §3, §9, §6, §7

Crabgrass (CG) [4] = assay: Pre-emergence herbicide test, crabgrass; format: in vivo, Digitaria sanguinalis; conditions: two weeks
Procedure: as §8, §1, §3, §4, §5, §6, §7

[5] = system: a variety of crops and weed species; assay: Pre- and post-emergence herbicide tests, overall assessment of TABLES III-VI; format: in vivo; conditions: from data of TABLES III-VI
Procedure: as §1, §2
(§11) Compounds were tested at rates of application equivalent to 8 lbs. of actual compound per acre in a spray volume of 38 gallons per acre. Spray hood constants required to deliver the above volume are as follows:
as §7
Typical of such compounds are: 1, 2, 5, 26, 36, and 37.

Corn (CN) = assay: Post-emergence herbicide test, corn; format: in vivo, Zea mays; conditions: Zea mays, post-emergence, 336 h, 4 lb/acre, two weeks
Procedure: as §1, §2, §11, §4, §5, §6, §7

Structure (SMILES): NC(=O)Nc1nnc(C(F)(F)F)s1 [Example 70]
- POST-EMERGENCE ACTIVITY, % CONTROL (Cotton (CT); 5 lb/acre): 20%
- POST-EMERGENCE ACTIVITY, % CONTROL (Cotton (CT); 10 lb/acre): 20%
- POST-EMERGENCE ACTIVITY, % CONTROL (Crabgrass (CG) [1]; 5 lb/acre): 20%
- POST-EMERGENCE ACTIVITY, % CONTROL (Crabgrass (CG) [1]; 10 lb/acre): 20%
- PRE-EMERGENCE ACTIVITY, % CONTROL (Turnip (TP) [2]; 5 lb/acre): 10%
- PRE-EMERGENCE ACTIVITY, % CONTROL (Turnip (TP) [2]; 10 lb/acre): 10%
- POST-EMERGENCE ACTIVITY, % CONTROL (Bean (BN); 5 lb/acre): 50%
- POST-EMERGENCE ACTIVITY, % CONTROL (Bean (BN); 10 lb/acre): 50%
- POST-EMERGENCE ACTIVITY, % CONTROL (Turnip (TP) [3]; 5 lb/acre): 80%
- POST-EMERGENCE ACTIVITY, % CONTROL (Turnip (TP) [3]; 10 lb/acre): 80%
- PRE-EMERGENCE ACTIVITY, % CONTROL (Crabgrass (CG) [4]; 5 lb/acre): 10%
- PRE-EMERGENCE ACTIVITY, % CONTROL (Crabgrass (CG) [4]; 10 lb/acre): 10%

Structure (SMILES): CNC(=O)Nc1nnc(C(F)(F)F)s1 [Example 1, 1-Methyl-3-[5-Trifluoromethyl-2-(1,3,4-Thiadiazolyl)]Urea]
- herbicidal effectiveness and selectivity (in words) [5]: extremely effective

Structure (SMILES): O=C(Nc1ccc(Cl)c(Cl)c1)Nc1nnc(C(F)(F)F)s1 [Example 16]
- herbicidal effectiveness and selectivity (in words) [5]: more selective

Structure (SMILES): CSc1nnc(N(C)C(=O)N(C)C)s1 [Example 5, 1,1,3-trimethyl-3-[5-methylthio-2-(1,3,4-thiadiazolyl)]urea]
- herbicidal effectiveness and selectivity (in words) [5]: extremely effective

Structure (SMILES): CCN(C(=O)NC)c1nnc(C(F)(F)F)s1 [Example 37]
- pest or weed control at 4483.4 g/ha (Corn (CN)): 30%
- herbicidal effectiveness and selectivity (in words) [5]: extremely effective

Structure (SMILES): CNC(=O)N(C)c1nnc(C(F)(F)F)s1 [Example 36]
- herbicidal effectiveness and selectivity (in words) [5]: extremely effective

Structure (SMILES): Cc1nnc(NC(=O)N(C)C)s1 [Example 19]
- herbicidal effectiveness and selectivity (in words) [5]: converse of this relationship

Structure (SMILES): CNC(=O)Nc1nncs1 [Example 35]
- herbicidal effectiveness and selectivity (in words) [5]: more selective

Structure (SMILES): CCNC(=O)Nc1nnc(C(F)(F)F)s1 [Example 9]
- herbicidal effectiveness and selectivity (in words) [5]: more selective
